Data published in patent publication US20230174946A1, “ORGAN INFECTION MODELS” (priority 2020, published 2023).
Read-outs that look alike come from different tables or passages of the source.

Assays:
SARS-CoV-2 [1] = format: cell-based; conditions: for effect on viral N gene RNA / viral replication in proximal ALI cultures (in words): pre-treatment, 10 µM Hydroxychloroquine or Remdesivir, 100 units/ml IFNB1
SARS-CoV-2 [2] = format: cell-based; conditions: 10 µM Hydroxychloroquine or Remdesivir, 100 units/ml IFNB1; for reduction in viral N gene RNA/expression compared to untreated infected organoids: human 3D alveolar organoids
SARS-CoV-2 [3] = format: cell-based; conditions: 10 µM Hydroxychloroquine or Remdesivir, 100 units/ml IFNB1
coxsackievirus = conditions: dose-dependent; previous study; cited from earlier work

| Compound | reduction in viral N gene RNA abundance (SARS-CoV-2 [1]) | reduction in viral N gene RNA/expression compared to untreated infected organoids (SARS-CoV-2 [2]) | reduction in viral N gene RNA/expression compared to untreated infected AT2 cultures (SARS-CoV-2 [3]) | effect on coxsackievirus proliferation in vitro (coxsackievirus) | effect on viral N gene RNA / viral replication in proximal ALI cultures (in words) (SARS-CoV-2 [1]) | effect on viral N gene RNA / viral replication in proximal ALI cultures (in words) (SARS-CoV-2 [1]; listed as hydroxychloroquine) | effect on viral replication in alveolar organoid cultures (in words) (SARS-CoV-2 [2]; pre-treatment) | effect on viral infection/replication in AT2 cultures (in words) (SARS-CoV-2 [3]; pre-treatment) |
| --- | --- | --- | --- | --- | --- | --- | --- | --- |
| CCC(CC)COC(=O)[C@H](C)N[P@](=O)(OC[C@H]1O[C@@](C#N)(c2ccc3c(N)ncnn23)[C@H](O)[C@@H]1O)Oc1ccccc1 [Remdesivir] | 10.2 log | 9 log | 9 log |  |  |  |  |  |
| NC(=O)c1ncn([C@@H]2O[C@H](CO)[C@@H](O)[C@H]2O)n1 [ribavirin] |  |  |  | significantly reduce coxsackievirus proliferation |  |  |  |  |
| CCN(CCO)CCCC(C)Nc1ccnc2cc(Cl)ccc12 (stereo not shown) [Hydroxychloroquine] |  | 2.4 log | 2.4 log |  | did not show a significant effect | did not have an effect on viral replication | significantly reduced viral replication | significantly reduced viral replication |
